In brackets after ≈: the same amount, converted by molar mass. Read-outs that look alike come from different tables or passages of the source.
Legend:
[1] = cited from earlier work
E. faecalis PBP2a = target: T1, E. faecalis PBP2a (Enterococcus faecalis, UniProt Q837Z4); test: IC50 for transglycosylase inhibition, E. faecalis PBP2a, [14C]-GlcNAc-labeled lipid II analogue; type: biochemical
T1 sequence (Q837Z4 1-728): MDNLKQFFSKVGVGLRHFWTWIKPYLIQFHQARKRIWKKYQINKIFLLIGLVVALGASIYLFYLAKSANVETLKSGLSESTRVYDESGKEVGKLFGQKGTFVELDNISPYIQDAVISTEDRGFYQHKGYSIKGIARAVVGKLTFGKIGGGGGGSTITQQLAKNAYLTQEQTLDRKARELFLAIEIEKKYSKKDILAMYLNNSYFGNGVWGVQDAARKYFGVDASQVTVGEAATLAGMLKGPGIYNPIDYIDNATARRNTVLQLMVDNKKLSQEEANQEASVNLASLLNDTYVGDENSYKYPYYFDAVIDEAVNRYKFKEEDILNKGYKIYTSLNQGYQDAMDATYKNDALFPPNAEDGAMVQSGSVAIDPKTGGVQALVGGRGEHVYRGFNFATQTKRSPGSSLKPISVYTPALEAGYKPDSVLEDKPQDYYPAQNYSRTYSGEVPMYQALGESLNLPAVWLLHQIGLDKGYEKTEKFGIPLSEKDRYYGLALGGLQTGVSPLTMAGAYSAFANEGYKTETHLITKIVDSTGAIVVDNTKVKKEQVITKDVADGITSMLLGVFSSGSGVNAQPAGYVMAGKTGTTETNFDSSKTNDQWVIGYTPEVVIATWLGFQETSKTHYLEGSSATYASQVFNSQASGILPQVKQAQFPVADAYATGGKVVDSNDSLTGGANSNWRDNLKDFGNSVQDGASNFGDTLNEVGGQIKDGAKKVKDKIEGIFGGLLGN
Description: The pbp2a gene was PCR-amplified from E. faecalis (CL4877) purified genomic DNA using the following primer pair: 5′-[…] AATCTTAAACAATTTTTT-3′ (SEQ ID NO: 1) and 5′[…]-3′ (SEQ ID NO: 2). The first primer introduced a NdeI restriction site (underlined), and the second primer introduced a XhoI site into the PCR product. The PCR product was subcloned into pET42 (Novagen) for expression in E. coli BL21(DE3) (Novagen) as a C-terminal His8 fusion. PBP2a was expressed after induction of a log phase culture grown at 37° C. with 1 mM IPTG and grown at 15° C. for an additional 20 h. The cells were harvested by centrifugation, and the cell pellets were resuspended in buffer A (20 mM Tris-HCl, 150 mM NaCl, pH 7.4) supplemented with 360 kU of rLysozyme (Novagen). The cells were lysed using a French pressure cell at 16,000 psi in buffer A. Freely soluble proteins were decanted and the pellet resuspended in buffer A containing 0.5% Sarkosyl to release membrane-anchored PBP2a. […] Fractions were analyzed by 12% SDS-PAGE, pooled and concentrated using a Amicon Ultra Centrifuga Filter Device (50K MW cutoff). […]
IC50 Values for PBP2a. […] Products and starting material were separated using chromatography (isobutryic acid:1 N NH4OH=5:3) and quantitated by scintillation counting. […]

[2] = test system: S. aureus, bacterial strain 29213; test: MIC, standard microdilution assay, S. aureus; type: cell-based; details: Staphylococcus aureus, no visible growth after 35° C. for 22 h, read-out: MIC (μg/ml) S. aureus
Description: (§1) MIC values (μg/mL) were obtained using a standard microdilution assay.

S. aureus PBP2 = target: T2, S. aureus PBP2 (Staphylococcus aureus, UniProt Q9R744); test: IC50 for transglycosylase inhibition, S. aureus PBP2, [14C]-GlcNAc-labeled lipid II analogue; type: biochemical
T2 construct: made in house
T2 sequence (Q9R744 1-727): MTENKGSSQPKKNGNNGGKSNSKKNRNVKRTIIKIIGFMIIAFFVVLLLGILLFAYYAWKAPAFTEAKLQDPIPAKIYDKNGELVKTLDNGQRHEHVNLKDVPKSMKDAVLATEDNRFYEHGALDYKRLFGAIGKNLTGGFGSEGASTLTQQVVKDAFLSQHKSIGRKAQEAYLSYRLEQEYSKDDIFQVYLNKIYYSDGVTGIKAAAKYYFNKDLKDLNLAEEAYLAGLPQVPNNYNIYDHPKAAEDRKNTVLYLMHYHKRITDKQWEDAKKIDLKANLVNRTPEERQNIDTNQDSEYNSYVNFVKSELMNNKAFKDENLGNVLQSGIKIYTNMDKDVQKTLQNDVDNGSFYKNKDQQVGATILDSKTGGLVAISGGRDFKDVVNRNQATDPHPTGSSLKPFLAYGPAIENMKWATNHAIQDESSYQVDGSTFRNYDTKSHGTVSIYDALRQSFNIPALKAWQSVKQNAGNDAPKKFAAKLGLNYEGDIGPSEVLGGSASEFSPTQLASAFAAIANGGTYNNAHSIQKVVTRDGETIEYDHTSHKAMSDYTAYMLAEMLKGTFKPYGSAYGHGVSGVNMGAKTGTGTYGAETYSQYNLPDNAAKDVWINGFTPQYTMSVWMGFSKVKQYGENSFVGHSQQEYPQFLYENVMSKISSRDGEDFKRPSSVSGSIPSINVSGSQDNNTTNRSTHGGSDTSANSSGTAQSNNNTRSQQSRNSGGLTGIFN
Description: S. aureus PBP2 was over-expressed and purified as described^4,5. The IC50s for moenomycin and neryl compounds were carried out using the following reaction condition: (0-50 μM) and PBP2 (final concentration 30 nM) were incubated in Eppendorf tubes containing 9 μL of buffer [(50 mM HEPES buffer, 50 mM MOPS, 50 mM MES, 50 mM AcOH) at pH 5.0, 10 mM CaCl2, 20% DMSO (v/v), 250 unit/mL penicillin G] for 30 min. The reaction was initiated by adding 4 μM [^14C]-GlcNAc-labeled lipid II analogue^4 (specific activity=101 cpm/pmol) and quenched after 80 min with 10 μL of ice-cold 10 mM Tris (pH=8.0) containing 0.2% Triton X-100. The reaction mixture was immediately spotted on cellulose chromatography paper (3MM Whatmann). Products and starting material were separated using chromatography (isobutryic acid:1 N NH4OH=5:3) and quantitated by scintillation counting. The data were fit using Prism, as described^3,4.

[3] = test system: E. faecalis, bacterial strain 29212; test: MIC, standard microdilution assay, E. faecalis; type: cell-based; details: Enterococcus faecalis, no visible growth after 35° C. for 22 h, read-out: MIC (μg/ml) E. faecalis
Description: as §1

bacteria = details: on a molar basis, cited from earlier work

| SMILES | absorption upon oral administration ([1]; oral) | pharmacokinetic properties ([1]; related to the lipid side chain) | IC50 (E. faecalis PBP2a) [nM] | MIC [2] [µg/mL] | IC50 (S. aureus PBP2) [nM] | MIC [3] [µg/mL] | potency relative to vancomycin (bacteria; listed as Moenomycin A) | potency relative to vancomycin (bacteria; listed as moenomycin A) | IC50 (E. faecalis PBP2a; PBP2a 52 nM, pH 7.5, 4 μM lipid II analogue, read-out: IC50 (μg/ml) E. faecalis PBP2a (converted)) [nM] |
| --- | --- | --- | --- | --- | --- | --- | --- | --- | --- |
| C=C(C/C=C(\C)CCC=C(C)C)CCC(C)(C)/C=C/CC/C(C)=C\CO[C@H](COP(=O)(O)O[C@H]1OC(C(N)=O)[C@@](C)(O)[C@H](OC(N)=O)C1O[C@@H]1OC(CO[C@@H]2OC(CO)[C@@H](O)[C@H](O)C2O)[C@@H](O[C@@H]2OC(C)[C@@H](O[C@@H]3OC(C(=O)NC4=C(O)CCC4=O)[C@H](O)[C@H](O)C3O)[C@H](O)C2NC(C)=O)[C@H](O)C1NC(C)=O)C(=O)O (stereo partly drawn) [compound 1, Moenomycin A] | relatively poor | poor pharmacokinetic properties | 26.5 | 0.016 (≈ 0.0101 µM) | 22.1 | 0.063 (≈ 0.0398 µM) | a thousand times more potent than the antibiotic vancomycin | a thousand times more potent than vancomycin |  |
| CC(=O)NC1[C@H](O[C@@H]2C(CO[C@@H]3OC(CO)[C@@H](O)[C@H](O)C3O)O[C@@H](OC3[C@@H](OP(=O)(O)OC[C@@H](OC/C=C(/C)CCC=C(C)C)C(=O)O)OC(C(N)=O)[C@@](C)(O)[C@@H]3OC(N)=O)C(NC(C)=O)[C@H]2O)OC(C)[C@@H](O[C@@H]2OC(C(=O)NC3=C(O)CCC3=O)[C@H](O)[C@H](O)C2O)[C@@H]1O (stereo partly drawn) [compound 15] |  |  |  | > 250 | 41.4 | > 250 |  |  | 16 |

Source: patent US8604004B2, “Moenomycin analogs, methods of synthesis, and uses thereof” (President and Fellows of Harvard College, priority 2007, dated 2013)
